Results from publication PMC5297880 (Clinical Pharmacology in Drug Development, 2016).
Like-named read-outs stand apart in the source and are kept apart here.

Experiments:
OCT2 = details: [14C]metformin substrate, ref data on file, cited from earlier work
[1] = format: in vivo, human; details: for AUCτ geometric least-squares mean ratio (90%CI) / Cmax geometric least-squares mean ratio (90%CI): lopinavir/ritonavir plus isavuconazole to isavuconazole alone; for AUC: AUCτ, day 13 (24 hours), mean (SD)
UGT1A1 = details: read-out: IC50 for 17β-estradiol 3-glucuronidation [UGT1A1]; human liver microsomes; cited from earlier work
CYP2C8 [2] = details: human liver microsomes; paclitaxel hydroxylation; P < .05; ref data on file; cited from earlier work
UGT1A9 = details: read-out: IC50 for propofol glucuronidation [UGT1A9]; human liver microsomes; cited from earlier work
CYP2B6 [3] = details: CYP2B6-expressing human liver microsomes; cited from earlier work
[4] = Safety: treatment-emergent adverse events in healthy subjects; format: in vivo, human
P-gp = details: read-out: IC50 P-gp inhibition; [3H]digoxin substrate; ref data on file; cited from earlier work
CYP3A7 = details: CYP3A7-expressing human liver microsomes; cited from earlier work
CYP2B6 [5] = details: cultured human hepatocytes; cited from earlier work
UGT2B7 = details: read-out: IC50 for morphine 3-glucuronidation [UGT2B7]; human liver microsomes; cited from earlier work
CYP2C8 [6] = details: CYP2C8-expressing human liver microsomes; cited from earlier work
CYP3A4 [7] = details: cultured human hepatocytes; cited from earlier work
CYP3A5 = details: CYP3A5-expressing human liver microsomes; cited from earlier work
CYP2B6 [8] = details: human liver microsomes; S-mephenytoin demethylation; P < .01; ref data on file; cited from earlier work
MATE1 = details: read-out: IC50 MATE1 inhibition; [14C]metformin substrate; ref data on file; cited from earlier work
CYP3A4 [9] = details: CYP3A4-expressing human liver microsomes; cited from earlier work
[10] = format: in vivo, human; details: for decrease in mean AUCτ in presence vs absence of isavuconazole / decrease in mean Cmax in presence vs absence of isavuconazole: Part 2, isavuconazole 200 mg; for AUC / Cmax: both, human, plasma, oral; for AUC: AUCτ, day 13 (12 hours), mean (SD); for Cmax: day 13, mean (SD)
[11] = Part 2, lopinavir/ritonavir plus isavuconazole to lopinavir/ritonavir alone
[12] = Part 2, lopinavir/ritonavir 400/100 mg + isavuconazole 200 mg, n = 16
[13] = Part 2, lopinavir/ritonavir 400/100 mg alone, n = 18

For `C[C@@H](c1nc(-c2ccc(C#N)cc2)cs1)[C@](O)(Cn1cncn1)c1cc(F)ccc1F` [Isavuconazole, isavuconazole], the IC50 (OCT2; read-out: IC50 OCT2 inhibition) is given as 1.97 µM, the Ki (OCT2; read-out: Ki OCT2 inhibition) is given as 0.69 µM and the “AUCτ geometric least-squares mean ratio (90%CI)” value ([1]; Part 1 (isavuconazole 100 mg)) is given as 213 (174, 262) %. For the same compound, the “Cmax geometric least-squares mean ratio (90%CI)” value ([1]; Part 1 (isavuconazole 100 mg)) was 196 (155, 248) %, the “increase in mean AUCτ in presence vs absence of lopinavir/ritonavir” value ([1]; Part 1, isavuconazole 100 mg) was 113% and the “increase in mean Cmax in presence vs absence of lopinavir/ritonavir” value ([1]; Part 1, isavuconazole 100 mg) was 96%. For the same compound, the “AUCτ geometric least-squares mean ratio (90%CI)” value ([1]; Part 2 (isavuconazole 200 mg)) was 196 (164, 235) %, the “Cmax geometric least-squares mean ratio (90%CI)” value ([1]; Part 2 (isavuconazole 200 mg)) was 174 (146, 208) % and the “increase in mean AUCτ in presence vs absence of lopinavir/ritonavir” value ([1]; Part 2, isavuconazole 200 mg) was 96%. For the same compound, the “increase in mean Cmax in presence vs absence of lopinavir/ritonavir” value ([1]; Part 2, isavuconazole 200 mg) was 74%, the Tmax ([1]; Part 2, isavuconazole 200 mg + lopinavir/ritonavir, day 13, median (range)) was 3.0 (1.0‐4.0) hours and the Tmax ([1]; both, human, plasma, oral, 100 mg) was 3 h. The Tmax ([1]; both, human, plasma, oral, 200 mg) was 3 h, the AUC ([1]; both, human, plasma, oral, Part 1, isavuconazole 100 mg + lopinavir/ritonavir 400/100 mg BID, n = 6) was 116000 ng·h/mL and the AUC ([1]; both, human, plasma, oral, Part 2, isavuconazole 200 mg + lopinavir/ritonavir 400/100 mg BID, n = 16) was 222000 ng·h/mL. For the same compound, the IC50 (UGT1A1) was 9 µM, the “correlation (r) of isavuconazole metabolism with CYP2C8 activity” value (CYP2C8 [2]) was 0.57 and the IC50 (UGT1A9) was 19 µM. For the same compound, the “% remaining” value (CYP2B6 [3]) was > 98 % remaining, the “subjects who experienced TEAEs” value ([4]; Part 1 (isavuconazole 100 mg), all mild) was 2 (33.3%) n (%) and the “TEAEs overall, subjects” value ([4]; Part 2) was 11 (61.1%) n (%). For the same compound, the “subjects with TEAEs in system organ class gastrointestinal disorders” value ([4]; Part 2, text) was 16.7%, the IC50 (P-gp) was 25.7 µM and the “% remaining” value (CYP3A7) was > 98 % remaining. The “increase of CYP2B6 activity” value (CYP2B6 [5]) was 13.4 fold, the “increase of CYP2B6 mRNA” value (CYP2B6 [5]) was 11.4 fold and the IC50 (UGT2B7) was 44 µM. For the same compound, the “% remaining” value (CYP2C8 [6]) was > 98 % remaining, the “increase of CYP3A4 activity” value (CYP3A4 [7]) was 3.4 fold and the “increase of CYP3A4 mRNA” value (CYP3A4 [7]) was 6.4 fold. The “% remaining” value (CYP3A5) was 68.4 % remaining, the “correlation (r) of isavuconazole metabolism with CYP2B6 activity” value (CYP2B6 [8]) was 0.65 and the IC50 (MATE1) was 6.31 µM. For the same compound, the “% remaining” value (CYP3A4 [9]) was 33.8 % remaining.
In the case of `Cc1cccc(C)c1OCC(=O)N[C@@H](Cc1ccccc1)[C@@H](O)C[C@H](Cc1ccccc1)NC(=O)[C@H](C(C)C)N1CCCNC1=O` [Lopinavir, lopinavir], the “decrease in mean AUCτ in presence vs absence of isavuconazole” value [10] is reported as 27%, the “decrease in mean Cmax in presence vs absence of isavuconazole” value [10] is reported as 23% and the “AUCτ geometric least-squares mean ratio (90%CI)” value [10, 11] is reported as 73 (56, 96) %. For the same compound, the “Cmax geometric least-squares mean ratio (90%CI)” value [10, 11] was 77 (62, 95) %, the AUC [10, 12] was 73300 ng·h/mL and the AUC [10, 13] was 91000 ng·h/mL.
For `CC(C)c1nc(CN(C)C(=O)N[C@H](C(=O)N[C@@H](Cc2ccccc2)C[C@H](O)[C@H](Cc2ccccc2)NC(=O)OCc2cncs2)C(C)C)cs1` [Ritonavir, ritonavir], the “decrease in mean AUCτ in presence vs absence of isavuconazole” value [10] was 31%, the “decrease in mean Cmax in presence vs absence of isavuconazole” value [10] was 33% and the AUC [10, 12] was 4000 ng·h/mL. It also gave an AUC [10, 13] of 5500 ng·h/mL, a Cmax ([10]; Part 2, lopinavir/ritonavir + isavuconazole) of 800 ng/mL and a Cmax ([10]; Part 2, lopinavir/ritonavir alone) of 1200 ng/mL.
